We go through seven compounds from US20230357240A1, “NOVEL N-HETEROCYCLIC BET BROMODOMAIN INHIBITOR, AND PREPARATION METHOD THEREOF AND MEDICAL USE THEREOF” (Chengdu Easton Biopharmaceuticals Co., Ltd., priority 2020, published 2023).

One series addresses T1, hERG (Homo sapiens, UniProt Q12809).
T1 construct: expressed in transfected cells; host or cells: HEK293 cells stably expressing hERG
The series can be described thus: hERG inhibition test, whole-cell patch clamp in HEK293 cells stably expressing the hERG ion channel. The series is classed as cell-based. Conditions: human, HEK293 cells stably expressing the hERG ion channel. The procedure:
(§1) An hERG current was recorded by the whole-cell patch clamp technique. A suspension of HEK293 cells stably expressing the hERG ion channel was added to a 35 mm culture dish, and the culture dish was put on a stage of an inverted microscope. […] The pulse program was repeated every 15 seconds throughout the whole test. After the current became stable, the administration method of continuous extracellular perfusion from low concentration to high concentration was used, and the perfusion started from low concentration and continued until the drug effect was stable, and then the perfusion of the next concentration was performed.
(§2) After the test, stimulus release and signal acquisition were carried out through PatchMaster software. Graphpad Prism 8.0 was used for further data analysis and curve fitting. Effects of each compound at different concentrations were represented with an inhibition rate of the tail current. Inhibition rate=(peak tail current before administration—peak tail current after administration)/peak tail current before administration x 100%. Half-maximal inhibitory concentration IC50 of the test samples was obtained by the fitting analysis with Hill equation.

Another series deals with T2, hERG ion channel (Homo sapiens, UniProt Q12809).
T2 construct: expressed in transfected cells; host or cells: HEK293 cells stably expressing hERG
T2 sequence (Q12809 whole entry): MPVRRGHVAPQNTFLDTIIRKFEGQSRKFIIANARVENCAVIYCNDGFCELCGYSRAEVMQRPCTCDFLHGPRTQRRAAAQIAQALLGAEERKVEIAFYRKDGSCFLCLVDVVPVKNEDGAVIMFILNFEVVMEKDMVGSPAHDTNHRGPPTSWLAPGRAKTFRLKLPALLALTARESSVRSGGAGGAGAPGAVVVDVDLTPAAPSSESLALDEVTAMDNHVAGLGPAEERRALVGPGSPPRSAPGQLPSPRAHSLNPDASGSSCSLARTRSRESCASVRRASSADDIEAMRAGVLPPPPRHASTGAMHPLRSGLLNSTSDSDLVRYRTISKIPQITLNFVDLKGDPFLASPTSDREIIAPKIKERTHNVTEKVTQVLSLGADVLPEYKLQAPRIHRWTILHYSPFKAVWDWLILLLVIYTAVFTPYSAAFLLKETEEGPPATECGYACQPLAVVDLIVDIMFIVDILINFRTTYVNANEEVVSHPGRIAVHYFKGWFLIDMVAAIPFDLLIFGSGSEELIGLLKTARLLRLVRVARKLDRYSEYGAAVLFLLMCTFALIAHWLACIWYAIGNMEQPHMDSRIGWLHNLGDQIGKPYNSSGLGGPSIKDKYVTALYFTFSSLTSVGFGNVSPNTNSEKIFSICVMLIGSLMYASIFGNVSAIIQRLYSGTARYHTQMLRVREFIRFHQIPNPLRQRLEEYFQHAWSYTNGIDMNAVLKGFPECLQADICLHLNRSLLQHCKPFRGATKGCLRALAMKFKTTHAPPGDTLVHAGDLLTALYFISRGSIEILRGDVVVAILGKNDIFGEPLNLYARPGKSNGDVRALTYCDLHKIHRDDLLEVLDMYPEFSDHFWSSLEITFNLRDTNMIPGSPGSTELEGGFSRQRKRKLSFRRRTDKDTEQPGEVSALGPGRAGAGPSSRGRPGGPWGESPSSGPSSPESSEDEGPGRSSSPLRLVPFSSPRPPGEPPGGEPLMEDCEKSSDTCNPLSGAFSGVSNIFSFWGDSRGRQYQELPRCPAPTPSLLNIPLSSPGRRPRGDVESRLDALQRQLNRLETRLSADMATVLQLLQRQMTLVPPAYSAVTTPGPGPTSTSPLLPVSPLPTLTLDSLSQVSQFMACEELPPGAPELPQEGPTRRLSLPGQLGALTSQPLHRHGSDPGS
Described as above. To be noted: tail current, Hill equation fit. The series is classed as cell-based. As for the experimental part:
as §1, §2

For the next series, the system named is MV4-11 xenograft tumor. The series can be described thus: In vivo efficacy test, MV4-11 xenograft tumor model in mice. Conditions: NOD-SCID mice, 5 mg/kg qd gavage, 14 days. The text has this: EXAMPLE 11 In Vivo Efficacy Test of the Compound of the Present Application
Objective: To test the inhibitory effect of the test compound on the growth of xenograft tumor in nude mice with MV4-11 leukemia.
Method: NOD-SCID mice were subcutaneously inoculated with MV4-11 cells to establish an MV4-11 xenograft tumor model in mice. 16 days after inoculation (d16), average tumor volume was about 210 mm^3. According to the tumor volumes, the tumor-bearing mice were grouped in a random block method, with 6 mice in each group. The groups included a solvent control group, an ABBV-744 control group, and a test sample group, the dosage was 5 mg/kg mouse body weight, and the dose volume was 10 mL/kg mouse body weight, once a day. Each group was gavage administered for 14 consecutive days, and the solvent control group was gavage administered with a blank solvent (20% […] solution). Tumor volumes were measured twice weekly after administration of the test drug. The animals were euthanized after the test.

For a further series, the system named is MV4-11 cell. The series can be described thus: MV4-11 cell proliferation experiment (CCK-8 cell viability). The series is classed as cell-based. To be noted: Homo sapiens, MV4-11 cells, 72-hour culture. The procedure:
EXAMPLE 9 Cell Experiment (MV4-11 Cell Proliferation Experiment)
Determination of Cell Viability with CCK-8 Reagent
(1) MV4-11 cell suspension was pipetted from a culture flask into a 15 mL centrifuge tube, and the cell suspension was centrifuged at 1000 rpm for 4 minutes.
(2) A supernatant in the centrifuge tube was discarded, and an appropriate amount of fresh complete medium (IMDM+10% FBS+1% P/S) was added to resuspend the cells. 20 μL of cell suspension was collected, 20 μL of trypan blue was added, and CounterStar was used for counting.
(3) A required cell suspension volume and complete medium volume were calculated according to viable cell density and the required number of plated cells. MV4-11 cells were plated at a density of 1*10^4 cells/well in 100 μL/well.
(4) 100 μL of the above cell suspension was pipetted into a 96-well plate by using an electric pipette. 150 μL of complete medium was added to blank control wells. PBS was added to peripheral wells of the 96-well plate, to avoid liquid evaporation. The 96-well plate was cultured overnight in an incubator.
Day 2: Compound Preparation:
(1) The compound of the present application dissolved in DMSO and the positive control substance ABBV-744 were fetched, and subjected to serial dilution (dilution in column A, column B, . . . , column J sequentially from left to right in a 96-well PCR plate).
An initial concentration of the solution in column A is 10 mM;
Column B: 2 μL of the solution in column A was diluted with 8 μL of DMSO to obtain a final concentration of 2000 μM;
Column C: 2 μL of the solution in column B was diluted with 8 μL of DMSO to obtain a final concentration of 400 μM;
Column D: 2 μL of the solution in column C was diluted with 8 μL of DMSO to obtain a final concentration of 80 μM;
Column E: 2 μL of the solution in column D was diluted with 8 μL of DMSO to obtain a final concentration of 16 μM;
Column F: 2 μL of the solution in column E was diluted with 8 μL of DMSO to obtain a final concentration of 3.2 μM;
Column G: 2 μL of the solution in column F was diluted with 8 μL of DMSO to obtain a final concentration of 0.64 μM;
Column H: 2 μL of the solution in column G was diluted with 8 μL of DMSO to obtain a final concentration of 0.128 μM;
Column I: 2 μL of the solution in column H was diluted with 8 μL of DMSO to obtain a final concentration of 0.0256 μM; and
Column J: 2 μL of the solution in column I was diluted with 8 μL of DMSO to obtain a final concentration of 0.00512 μM.
The suspension was centrifuged for 1 minute at 1000 rpm by using a low-speed centrifuge.
(2) 3×Compound Preparation: (Diluted in a 96-Well Cell Culture Plate)
3 μL of each of the solutions in columns B to J was pipetted into […] of complete medium by a 10 μL manual pipette to obtain 3×compound solutions with a final concentration of 30000, 6000, 1200, 240, 48, 9.6, 1.92, 0.384 and 0.0768 nM, respectively; and 3 μL of DMSO was pipetted into […] of complete medium as a control. The resulting 96-well cell culture plate was put on an oscillator to be oscillated at 500 rpm for 30 minutes.
(1) The prepared 3×compound solutions with the above concentrations were each pipetted by a manual pipette with its volume set to 50 μL into a corresponding well of the 96-well plate after overnight culture on the first day, and the total culture volume of each well was 150 μL. The final concentrations of the compounds in the 96-well plate were 10 μM, 2 μM, 400 nM, 80 nM, 16 nM, 3.2 nM, 0.64 nM, 0.128 nM and 0.0256 nM, respectively. The resulting 96-well plate was put on an oscillator to be oscillated at 500 rpm for 10 minutes.
(2) The 96-well plate as prepared was put in a CO2 incubator for 72-hour culture.
(1) CCK-8 test solution was pipetted into the 96-well cell culture plate in an amount of 15 μL/well by a pipette with a volume set to 15 μL.
(2) The 96-well plate was put in the CO2 incubator for 4-hour culture. […]

Setting [1] is: read-out: Average hERG inhibition rate.
Where [2] appears, read: read-out: hERG Inhibition rate, Cell 1.
[3] abbreviates: read-out: hERG Inhibition rate, Cell 2.

The term inhibition denotes how much of the control response was suppressed. The IC50 is the concentration needed to halve the response being measured. A low value points to higher potency.

Where two headings read alike, the source gives them in different places.

T1 sequence (Q12809 whole entry): as above

Turning to `CCNC(=O)c1cc2c(-c3cc(C(C)(C)O)ccc3Oc3c(C)cc(F)cc3C)cn(C)c(=O)c2[nH]1` [ABBV-744, reference compound], at hERG (setting [1]), the inhibition at 0.37 µM came out at 5.35%, the inhibition at 1.11 µM amounted to 17.4%, the inhibition at 3.33 µM came to 54.7% and the inhibition at 10 µM was 87.6%. The inhibition at 30 µM on hERG (setting [1]) was 99.1%. On hERG (setting [2]), the inhibition at 0.37 µM was 8.24%, the inhibition at 1.11 µM was 23%, the inhibition at 3.33 µM is 57.7% and the inhibition at 10 µM was found to be 87.9%. Also, the inhibition at 30 µM on hERG (setting [2]) was found to be 99.4%. Moreover, at hERG (setting [3]), the inhibition at 0.37 µM was 2.46%, the inhibition at 1.11 µM is 11.8%, the inhibition at 3.33 µM came out at 51.7% and the inhibition at 10 µM was 87.3%. For the same compound, the inhibition at 30 µM at hERG (setting [3]) was found to be 98.7%. The compound also had an IC50 on hERG ion channel of 3120 nM. Moreover, the “Relative tumor proliferation rate T/C” value in the series with MV4-11 xenograft tumor turned out to be 45.98%. In the series on MV4-11 cell, this compound yielded an IC50 of 7.22 nM.
`CCNC(=O)c1cc2c(-c3sc(C(C)(C)O)cc3N3CCc4cccc(F)c43)cn(C)c(=O)c2[nH]1` [Compound 2, N-ethyl-4-(3-(7-fluoroindolin-1-yl)-5-(2-hydroxypropyl-2-yl)thiophen-2-yl)-6-methyl-7-oxo-6,7-dihydro-1H-pyrrolo[2,3-c]pyridine-2-carboxamide] yielded an IC50 with MV4-11 cell of 24.2 nM.
Compound `CCNC(=O)c1cc2c(-c3sc(C(C)(C)O)cc3N3CCc4cccc(C)c43)cn(C)c(=O)c2[nH]1` [Compound 3, N-ethyl-4-(5-(2-hydroxypropyl-2-yl)-3-(7-methylindolin-1-yl)thiophen-2-yl)-6-met hyl-7-oxo-6,7-dihydro-1H-pyrrolo[2,3-c]pyridine-2-carboxamide] registered an IC50 in the series on MV4-11 cell of 39.8 nM.
`CCNC(=O)c1cc2c(-c3sc(C(C)(C)O)cc3N3CCc4cc(F)ccc43)cn(C)c(=O)c2[nH]1` [Compound 4, N-ethyl-4-(3-(5-fluoroindolin-1-yl)-5-(2-hydroxypropyl-2-yl)thiophen-2-yl)-6-methyl-7-oxo-6,7-dihydro-1H-pyrrolo[2,3-c]pyridine-2-carboxamide] showed an IC50 in the series with MV4-11 cell of 6.3 nM.
As for `CCNC(=O)c1cc2c(-c3sc(C(C)(C)O)cc3N3CCc4cc(C(F)(F)F)ccc43)cn(C)c(=O)c2[nH]1` [Compound 5, N-ethyl-4-(5-(2-hydroxypropyl-2-yl)-3-(5-trifluoromethylindolin-1-yl)thiophen-2-y I)-6-methyl-7-oxo-6,7-dihydro-1H-pyrrolo[2,3-c]pyridine-2-carboxamide], in the series with MV4-11 cell, the IC50 is 12.1 nM.
Same read-out and setting: for `CCNC(=O)c1cc2c(-c3sc(C(C)(C)O)cc3N3CCCc4cc(F)ccc43)cn(C)c(=O)c2[nH]1` [Compound 6, N-ethyl-4-(5-(2-hydroxypropyl-2-yl)-3-(6-fluoro-3,4-dihydroquinolin-1(2H)-yl)thiophen-2-yl)-6-methyl-7-oxo-6,7-dihydro-1H-pyrrolo[2,3-c]pyridine-2-carboxamide] the value was 8.2 nM.
The compound `CCNC(=O)c1cc2c(-c3sc(C(C)(C)O)cc3N3CCc4cccc(C(F)(F)F)c43)cn(C)c(=O)c2[nH]1` [Compound 7, N-ethyl-4-(5-(2-hydroxypropyl-2-yl)-3-(7-(trifluoromethyl)indolin-1-yl)thiophen-2-yl)-6-methyl-7-oxo-6,7-dihydro-1H-pyrrolo[2,3-c]pyridine-2-carboxamide] came in with an IC50 in the series on MV4-11 cell of 17.3 nM.
